Results on two compounds are retold here after publication PMC11089204 (Frontiers in Pharmacology, 2024).

Structures are written as SMILES.

Data set [1] concerns the target T1, recombinant CYP2D6 (Homo sapiens, UniProt P10635).
T1 construct: purchased Corning Life Sciences B.V
As to the kind of experiment: Incubation with recombinant CYP2D6 enzymes. The conditions noted are these: rec. CYP2D6 with CYP2D6 inhibitor quinidine. The format is in vitro ADME. As for the experimental part: Corning UltraPool human liver microsomes (HLM) 150 (20 mg/mL), human intestinal microsomes (HIM) pool (10 mg/mL) as well as recombinant human CYP enzymes (with P450 oxidoreductase, OR) including CYP1A2+OR (0.5 nmol), CYP2B6+OR (0.5 nmol), CYP2C8+OR (1.0 nmol), CYP2C9*1+OR (1 nmol), CYP2C19+OR (0.5 nmol), CYP2D6*1+OR (0.5 nmol), CYP2E1+OR + cytochrome b5 (1 nmol), CYP3A4+OR + cytochrome b5 (0.5 nmol), MAO-A (5 mg/mL), MAO-B (5 mg/mL), and UGT1A10 (5 mg/mL) were purchased from Corning Life Sciences B.V (Amsterdam, Netherlands). All microsomes and recombinant enzyme solutions were aliquoted and stored at −80 °C until further use.
The total volume of the reaction mixture was 500 μL. […] Samples were either directly analyzed by liquid chromatography tandem mass spectrometry (LC-MS/MS) or briefly stored at −20°C until analysis.

Data set [2] in a line: Pharmacokinetics and metabolites in mouse plasma after oral psilocybin. Format: in vivo, C57BL/6J mice. The conditions noted are these: 3 mg/kg psilocybin p.o. The procedure: C57BL/6J adult male mice (Janvier, Le Genest-Saint-Isle, France) were maintained in littermate pairs in standard cages (containing sawdust, a sleeping chamber, tissue paper, and a wood stick) with water and pellet food available ad libitium. The colony room was on a reversed light-dark cycle (dark phase 07:00 to 19:00) with temperature at 22°C and humidity at 50–60%. A total of 10 mice were dosed orally with either 3 mg/kg bodyweight psilocybin (n = 5) or saline solution (n = 5). Dosing and blood sampling were conducted between 09:00 and 13:00. The mouse was placed in a plastic restrainer with the tail protruding through a hole in the end of the tube. The tail was immersed in warm water for 1 min for vasodilation and then a small incision was made on the lateral tail surface near the distal tip. 50 μL of blood was massaged gently into an EDTA-coated capillary blood tube (Mircovette, Sarstedt, Nümbrecht, Germany). The first (baseline) blood sample was collected directly before compound administration via oral gavage and the mouse was then returned to the home cage. Further blood samples were collected at 15, 30, 60, and 120 min post-treatment. Each sample was drawn from the same incision site, with mice maintained in the home cage in the intervening periods. The blood samples were stored on ice and centrifuged for 10 min at 780 × g and 4°C. Subsequently, the plasma was transferred into cryotubes (Protein LoBind, Eppendorf) and stored at −80 °C until analysis. All procedures were conducted under a permit for animal experimentation (ZH038/2022) issued by the Veterinary Office Zurich in accordance with the Animal Protection Act (1978) of Switzerland. The use of psilocybin was authorized by the Federal Office of Public Health (FOPH).
Pharmacokinetic parameters were calculated using Phoenix WinNonlin software (version 8.1.0, Certara, Princeton, USA). The elimination half-life (t1/2, min) was assessed as t1/2 = ln(2)/λ, while the elimination constant was calculated by linear regression in the terminal elimination phase. The maximal plasma concentration (Cmax, ng/mL) and the time to reach this concentration (tmax, h) were direct read-outs of the graphical plots.

Data set [3] addresses mouse 5-HT2A receptor. On the set-up: method as in Sherwood et al., 2020. The conditions noted are these: Gq-dependent calcium flux, nearly full agonist; ref Sherwood et al., 2020; cited from earlier work.
Data set [4] relates to mice. Also on record: method as in Sherwood et al., 2020. The conditions noted are these: ref Sherwood et al., 2020; cited from earlier work.
Data set [5] in a line: Metabolites in human plasma after oral psilocybin (reanalysed study samples). As to conditions: 30 mg psilocybin p.o., n = 5.

T1 sequence (P10635 whole entry): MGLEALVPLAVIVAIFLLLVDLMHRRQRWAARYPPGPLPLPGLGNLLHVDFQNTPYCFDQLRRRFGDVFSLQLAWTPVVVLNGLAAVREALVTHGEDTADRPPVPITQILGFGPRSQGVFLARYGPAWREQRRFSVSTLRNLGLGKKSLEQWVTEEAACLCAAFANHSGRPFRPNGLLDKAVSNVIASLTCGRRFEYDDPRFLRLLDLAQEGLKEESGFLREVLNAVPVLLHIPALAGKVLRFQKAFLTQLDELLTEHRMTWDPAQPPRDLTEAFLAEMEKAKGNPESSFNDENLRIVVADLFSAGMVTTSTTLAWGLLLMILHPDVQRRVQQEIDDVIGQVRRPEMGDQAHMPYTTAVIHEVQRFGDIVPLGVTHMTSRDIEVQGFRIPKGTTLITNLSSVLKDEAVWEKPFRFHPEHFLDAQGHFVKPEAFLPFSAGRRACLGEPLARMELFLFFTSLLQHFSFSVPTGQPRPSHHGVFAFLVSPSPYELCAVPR

On to `CNCCc1c[nH]c2cccc(O)c12` [norpsilocin, N-methyl-4-hydroxytryptamine], for which, in data set [1], the “metabolite formation on co-incubation with quinidine” value was “reduced and delayed formation”. Moreover, the Tmax in data set [2] (male, C57BL/6J, po, mouse plasma, n = 5, read-out: tmax (mean ± SD)) was about 15 min. The EC50 in data set [3] was under 10 nM. Further, the “psychoactive properties in head-twitch response” value in data set [4] is “did not show any psychoactive properties”. Also, in data set [5], the “detection in human plasma” value is given as “neither norpsilocin nor 4-HTP was detected”.

As to `CN(C)CCc1c[nH]c2cccc(OP(=O)(O)O)c12` [psilocybin], the “detection in mouse plasma” value in data set [2] is given as “did not detect”. Moreover, the “detection in human plasma” value in data set [5] was “did not detect”.

A word on the Tmax: it is the time from dosing to the highest level. What is called EC50 is the concentration that produces a half-maximal response.
